# Experimental data as given in patent US20230097700A1, “AZETIDINE SULFONAMIDE COMPOUND” (DAIICHI SANKYO COMPANY, LIMITED, priority 2019, published 2023).
# Where a name gives a salt, the structure may show the parent alone.
# System: activated T cells (CD4+ T cells derived from the mouse spleen)
# Experiment: Incorporation of 3H-thymidine into activated T cells
# Format: cell-based, mouse (C57BL/6J)
# Conditions: 3H-thymidine incorporation, mouse spleen CD4+ T cells activated with Dynabeads Mouse T-Activator CD3/CD28
# Method: Effect of a test substance on incorporation of ^3H-thymidine was evaluated using T cells derived from the mouse spleen. The spleen was excised out from a C57BL/6J mouse euthanized, cut into pieces, ground on a cell strainer (40 μm mesh) and centrifuged to collect spleen cells. CD4+ T cells were isolated from the spleen cells by use of EasySep Mouse CD4+ T cell isolation kit (STEMCELL Technologies). CD4+ T cells were seeded to a 96-well round-bottom plate. Test substance dissolved in DMSO (dimethyl sulfoxide) or vehicle (DMSO) was added to culture medium and Dynabeads Mouse T-Activator CD3/CD28 (Thermo Fisher Scientific Inc.) was added. Culture was carried out at 37° C. in 5% CO2. After culture was carried out for 24 hours, ^3H-thymidine (PerkinElmer) diluted with the culture medium was added to individual wells. Culture was further carried out overnight at 37° C. in 5% CO2. In order to measure ^3H-thymidine incorporated in nuclei of the cells, the cells were collected on a filter plate UniFilter-96 GF/B (PerkinElmer) by use of a FilterMate Universal Harvester (PerkinElmer). After the filter plate was placed in a dryer and allowed to stand still for 2 hours or more, scintillation cocktail MicroScint-O (PerkinElmer) was added and radioactivity was measured by TopCount NXT (PerkinElmer). With the radioactivity of a group not containing a test substance being specified as 100% and the radioactivity of a group not activated being specified as 0%, relative radioactivity values of individual wells to which the test substance was added (proliferation rate, % of vehicle) were calculated. The values of “% of vehicle” were entered in analysis software Prism (Version 4.03, GraphPad Software). “Nonlinear regression Log (inhibitor) vs reaction variable tilt” was selected and sigmoid type-fitting (Bottom=0, Top=100) was carried out to calculate 50% inhibition concentration (IC50). The compound of the present invention suppresses ^3H-thymidine incorporation in activated T cells.
row,IC50 [nM],SMILES
1,4.8,"N[C@@H](Cc1cccc(S(=O)(=O)N2CC(Oc3ccc(F)cc3)(c3ccc(Cl)cc3)C2)c1)C(=O)O [Example 54, (2S)-2-Amino-3-(3-{[3-(4-chlorophenyl)-3-(4-fluorophenoxy)azetidin-1-yl]sulfonyl}phenyl)propanoic acid monoformate]"
2,14,"CC(=O)c1ccc(OC2(c3ccc(F)cn3)CN(S(=O)(=O)c3cccc(C[C@H](N)C(=O)O)c3)C2)cc1 [Example 60, (2S)-3-(3-{[3-(4-acetylphenoxy)-3-(5-fluoropyridin-2-yl)azetidin-1-yl]sulfonyl}phenyl)-2-aminopropanoic acid dihydrochloride]"
3,16,"N[C@@H](Cc1cccc(S(=O)(=O)N2CC(Oc3ccc4c(c3)COB4O)(c3ccc(F)cc3)C2)c1)C(=O)O [Example 58, (2S)-2-Amino-3-[3-({3-(4-fluorophenyl)-3-[(1-hydroxy-1,3-dihydro-2,1-benzoxaborol-5-yl)oxy]azetidin-1-yl)sulfonyl)phenyl]propanoic acid monoformate]"
4,18,"Cc1ccc(C2(Oc3cccc(F)c3)CN(S(=O)(=O)c3cccc(C[C@H](N)C(=O)O)c3)C2)cc1 [Example 59, (2S)-2-Amino-3-(3-{[3-(3-fluorophenoxy)-3-(4-methylphenyl)azetidin-1-yl]sulfonyl}phenyl)propanoic acid monoformate]"
5,18,"Cc1cccc(OC2(c3ccccc3)CN(S(=O)(=O)c3cccc(C[C@H](N)C(=O)O)c3)C2)c1 [Example 43, (2S)-2-Amino-3-(3-{[3-(3-methylphenoxy)-3-phenylazetidin-1-yl]sulfonyl}phenyl)propanoic acid monohydrochloride]"
6,16,"N[C@@H](Cc1cccc(S(=O)(=O)N2CC(Oc3ccc4c(c3)OCCO4)(c3ccccc3)C2)c1)C(=O)O [Example 7, (2S)-2-Amino-3-(3-{3-[(2,3-dihydro-1,4-benzodioxin-6-yl)oxy]-3-phenylazetidin-1-sulfonyl}phenyl)propanoic acid monohydrochloride]"
7,26,"CC(C)NC(=O)c1ccc(OC2(c3ccccc3)CN(S(=O)(=O)c3cccc(C[C@H](N)C(=O)O)c3)C2)cc1 [Example 11, (2S)-2-Amino-3-[3-(3-phenyl-3-{4-[(propan-2-yl)carbamoyl]phenoxy}azetidin-1-sulfonyl)phenyl]propanoic acid monoformate]"
8,35,"N[C@@H](Cc1cccc(S(=O)(=O)N2CC(Oc3cccc(-c4ccccc4)c3)(c3ccccc3)C2)c1)C(=O)O [Example 3, (2S)-2-Amino-3-(3-{3-[([1,1′-biphenyl]-3-yl)oxy]-3-phenylazetidin-1-sulfonyl)phenyl)propanoic acid]"
9,21,"N[C@@H](Cc1cccc(S(=O)(=O)N2CC(Oc3ccc(OC(F)F)cc3)(c3ccccc3)C2)c1)C(=O)O [Example 12, (2S)-2-Amino-3-(3-{3-[4-(difluoromethoxy)phenoxy]-3-phenylazetidin-1-sulfonyl}phenyl)propanoic acid monoformate]"
10,36,"Cc1ncc(OC2(c3ccc(F)cc3)CN(S(=O)(=O)c3cccc(C[C@H](N)C(=O)O)c3)C2)cc1F [Example 49, (2S)-2-Amino-3-[3-({3-[(5-fluoro-6-methylpyridin-3-yl)oxy]-3-(4-fluorophenyl)azetidin-1-yl}sulfonyl)phenyl]propanoic acid dihydrochloride]"
11,31,"Cc1ccc(OC2(c3ccc(F)cc3)CN(S(=O)(=O)c3cccc(C[C@H](N)C(=O)O)c3)C2)cn1 [Example 46, (2S)-2-Amino-3-[3-({3-(4-fluorophenyl)-3-[(6-methylpyridin-3-yl)oxy]azetidin-1-yl}sulfonyl)phenyl]propanoic acid dihydrochloride]"
12,9.1,"Cc1ccc(C2(Oc3ccc(C#N)cc3)CN(S(=O)(=O)c3cccc(C[C@H](N)C(=O)O)c3)C2)cc1 [Example 13, (2S)-2-Amino-3-{3-[3-(4-cyanophenoxy)-3-(4-methylphenyl)azetidine-1-sulfonyl]phenyl}propanoic acid monoformate]"
13,19,"N[C@@H](Cc1cccc(S(=O)(=O)N2CC(Oc3ccc(Cl)cc3)(c3ccc(F)c(F)c3)C2)c1)C(=O)O [Example 36, (2S)-2-Amino-3-{3-[3-(4-chlorophenoxy)-3-(3,4-difluorophenyl)azetidin-1-sulfonyl]phenyl}propanoic acid monohydrochloride]"
14,14,"NC(=O)c1ccc(OC2(c3ccc(F)c(F)c3)CN(S(=O)(=O)c3cccc(C[C@H](N)C(=O)O)c3)C2)cc1 [Example 39, (2S)-2-Amino-3-{3-[3-(4-carbamoylphenoxy)-3-(3,4-difluorophenyl)azetidin-1-sulfonyl]phenyl}propanoic acid monohydrochloride]"
15,22,"CCc1ccc(OC2(c3ccc(F)cc3)CN(S(=O)(=O)c3cccc(C[C@H](N)C(=O)O)c3)C2)cn1 [Example 48, (2S)-2-Amino-3-[3-({3-[(6-ethylpyridin-3-yl)oxy]-3-(4-fluorophenyl)azetidin-1-yl}-sulfonyl)phenyl]propanoic acid dihydrochloride]"
16,6.6,"N[C@@H](Cc1cccc(S(=O)(=O)N2CC(Oc3ccc(B(O)O)cc3)(c3ccccc3)C2)c1)C(=O)O [Example 52, (2S)-2-Amino-3-(3-{[3-(4-boronophenoxy)-3-phenylazetidin-1-yl]sulfonyl}phenyl)propanoic acid monoformate]"
17,3.7,"CN(C)c1ccc(OC2(c3ccc(F)cc3)CN(S(=O)(=O)c3cccc(C[C@H](N)C(=O)O)c3)C2)cc1 [Example 21, (2S)-2-Amino-3-{3-[4-(dimethylamino)phenoxy]-3-(4-fluorophenyl)azetidin-1-yl]sulfonylphenyl}propanoic acid monohydrochloride]"
18,14,"N[C@@H](Cc1cccc(S(=O)(=O)N2CC(Oc3cccc(F)c3)(c3ccc(F)cc3)C2)c1)C(=O)O [Example 15, (2S)-Amino-3-(3-{[3-(3-fluorophenoxy)-3-(4-fluorophenyl)azetidin-1-yl]sulfonyl}phenyl)propanoic acid]"
19,19,N[C@@H](Cc1cccc(S(=O)(=O)N2CC(Oc3ccc(Cl)cc3)(c3ccccc3)C2)c1)C(=O)O [Example 87]
20,10,"Cc1ccc(OC2(c3ccccc3)CN(S(=O)(=O)c3cccc(C[C@H](N)C(=O)O)c3)C2)cc1 [Example 16, (2S)-Amino-3-(3-{[3-phenyl-3-(p-tolyloxy)azetidin-1-yl]sulfonyl)phenyl)propanoic acid]"
21,16,"COc1ccc(OC2(c3ccc(F)cc3)CN(S(=O)(=O)c3cccc(C[C@H](N)C(=O)O)c3)C2)cn1 [Example 57, (2S)-2-Amino-3-[3-({3-(4-fluorophenyl)-3-[(6-methoxypyridin-3-yl)oxy]azetidin-1-yl}sulfonyl)phenyl]propanoic acid monoformate]"
22,24,"N[C@@H](Cc1cccc(S(=O)(=O)N2CC(Oc3ccc(F)cc3)(c3ccc(F)c(F)c3)C2)c1)C(=O)O [Example 37, (2S)-2-Amino-3-{3-[3-(3,4-difluorophenyl)-3-(4-fluorophenoxy)azetidin-1-sulfonyl]phenyl}propanoic acid monohydrochloride]"
23,8.8,"NC(=O)c1ccc(OC2(c3ccccc3)CN(S(=O)(=O)c3cccc(C[C@H](N)C(=O)O)c3)C2)cc1 [Example 20, (2S)-2-Amino-3-{3-[3-(4-carbamoylphenoxy)-3-phenylazetidine-1-sulfonyl]phenyl}propanoic acid monoformate]"
24,7.7,"CC(=O)c1ccc(OC2(c3ccc(C)cc3)CN(S(=O)(=O)c3cccc(C[C@H](N)C(=O)O)c3)C2)cc1 [Example 14, (2S)-3-{3-[3-(4-Acetylphenoxy)-3-(4-methylphenyl)azetidine-1-sulfonyl]phenyl}-2-aminopropanoic acid monoformate]"
25,8.7,"N[C@@H](Cc1cccc(S(=O)(=O)N2CC(Oc3ccc(Cl)cc3)(c3ccc(Cl)cc3)C2)c1)C(=O)O [Example 53, (2S)-2-Amino-3-(3-{[3-(4-chlorophenoxy)-3-(4-chlorophenyl)azetidin-1-yl]sulfonyl}phenyl)propanoic acid monoformate]"
26,14,"N#Cc1ccc(OC2(c3ccccc3)CN(S(=O)(=O)c3cccc(C[C@H](N)C(=O)O)c3)C2)cc1 [Example 18, (2S)-Amino-3-(3-{[3-(4-cyanophenoxy)-3-phenylazetidin-1-yl]sulfonyl}phenyl)propanoic acid]"
27,21,"C[C@H](OC(=O)[C@@H](N)Cc1cccc(S(=O)(=O)N2CC(Oc3cccc(F)c3)(c3ccccc3)C2)c1)C(=O)N(C)C [Example 31, (2S)-1-(Dimethylamino)-1-oxopropan-2-yl (2S)-2-amino-3-{3-[3-(3-fluorophenoxy)-3-phenylazetidin-1-sulfonyl]phenyl}propanoate monotrifluoroacetate]"
